# Laboratory results reported in US10751379B2, “Method for preparing anti-obesity composition by using astringent persimmons and mandarin peels” (INDUSTRY ACADEMIC COORPERATION FOUNDATION DAEGU HAANY …, priority 2016, dated 2020).
# How the values were obtained:
# [1] = ABTS radical inhibition; type: biochemical; conditions: 15 minutes at room temperature in the dark, 750 nm
# Experimental: ABTS inhibition of the different extracts was measured according to the modified method of Park et al. ABTS stock solution was dissolved in water to 7.4 mM concentration. The ABTS radical cation (ABTS) was produced by reacting ABTS stock solution with 2.45 mM potassium persulfate and allowing the mixture to stand for 14 hours at room temperature in the dark. The ABTS solution was diluted with ethanol to obtain an absorbance of 0.70±0.02 at 750 nm. After adding diluted ABTS solution to PCM solution, the mixture was left standing at room temperature for 15 minutes in the dark. The ascorbic acid (standard sample) was prepared for eight concentrations (0.5, 1, 2, 5, 10, 20, 50, and 200 μg/mL). The absorbance at 750 nm was measured using a microplate reader (M200 PRO, Tecan, Austria). The blank was prepared in the same manner, except that distilled water was used instead of the sample. The radical scavenging activity was calculated using the following formula. ABTS radical scavenging activity (%)=[1(Asample/Ablank)]×100
# [2] = DPPH radical inhibition (antioxidant activity); type: biochemical; conditions: 60 μM DPPH, 30 minutes at 25° C., 540 nm
# Experimental: The ascorbic acid (standard sample) was prepared for eight concentrations (0.5, 1, 2, 5, 10, 20, 50, and 200 μg/mL). The reaction mixture was stored in the dark at 25° C. for 30 minutes. The optical density was determined using a microplate reader (M200 PRO, Tecan, Austria). The mixture was measured spectrophotometrically using 540 nm. The antioxidant activity of each sample was expressed in terms of IC50 (micromolar concentration required to inhibit DPPH radical formation by 50%, calculated from the log-dose inhibition curve). Antioxidant activity was expressed in terms of IC50, and a lower IC50 value corresponds to a large inhibition. The radical scavenging activity was calculated using the following formula. DPPH radical scavenging activity (%)=[1(Asample/Ablank)]×100
# [3] = molecular target: T1, pancreatic lipase enzyme (Homo sapiens, UniProt P16233); conditions: background statement; cited from earlier work
# T1 sequence (P16233 17-465): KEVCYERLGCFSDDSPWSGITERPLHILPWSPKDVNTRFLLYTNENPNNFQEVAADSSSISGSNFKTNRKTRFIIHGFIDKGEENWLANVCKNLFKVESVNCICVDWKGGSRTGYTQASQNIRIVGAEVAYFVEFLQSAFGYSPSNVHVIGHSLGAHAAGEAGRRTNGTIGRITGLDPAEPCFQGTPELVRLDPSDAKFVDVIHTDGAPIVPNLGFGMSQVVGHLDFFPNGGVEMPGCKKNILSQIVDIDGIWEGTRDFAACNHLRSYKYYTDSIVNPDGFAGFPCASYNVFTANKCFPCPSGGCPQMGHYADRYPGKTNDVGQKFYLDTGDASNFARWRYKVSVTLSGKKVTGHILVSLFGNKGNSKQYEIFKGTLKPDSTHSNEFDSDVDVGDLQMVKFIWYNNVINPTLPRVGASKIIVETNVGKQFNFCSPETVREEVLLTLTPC
# [4] = molecular target: T2, porcine pancreatic lipase (Sus scrofa, UniProt P00591); test: Pancreatic lipase inhibition (p-NPB hydrolysis); type: biochemical; conditions: PCM 100-1000 μg/mL, orlistat 0.1-1 μg/mL, n=4
# T2 construct: purchased Sigma-Aldrich Co. Type 2 (catalogue number not given)
# T2 sequence (P00591 1-450): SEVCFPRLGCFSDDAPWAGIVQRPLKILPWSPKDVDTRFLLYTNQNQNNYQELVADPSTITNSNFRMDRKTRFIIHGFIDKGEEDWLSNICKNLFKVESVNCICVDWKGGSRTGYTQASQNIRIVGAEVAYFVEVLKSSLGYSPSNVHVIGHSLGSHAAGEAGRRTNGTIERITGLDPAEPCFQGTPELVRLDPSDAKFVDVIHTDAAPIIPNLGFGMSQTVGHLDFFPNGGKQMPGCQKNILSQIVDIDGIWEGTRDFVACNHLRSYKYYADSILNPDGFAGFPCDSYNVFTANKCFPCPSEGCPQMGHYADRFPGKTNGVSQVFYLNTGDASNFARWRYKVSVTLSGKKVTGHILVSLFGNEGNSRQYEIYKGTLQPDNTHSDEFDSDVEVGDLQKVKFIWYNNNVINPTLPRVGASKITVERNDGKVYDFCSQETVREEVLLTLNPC
# [5] = system: HFD-induced obesity in mice; test: Serum lipid profiles in HFD-induced obesity mice, 6 weeks; type: in vivo, ICR mice; conditions: Orlistat orally daily for 6 weeks
# Experimental: Male healthy 4-week-old ICR mice (about 30-32 g) were purchased from Orient (Gyeonggi-do, Korea). Each mouse was kept at room temperature (22±3° C.) and humidity (55±5%) with a 12-h light/dark cycle. The experiments were approved by the Ethics Committee of Animal Experimentation of the University of Daegu Haany. The mice were allowed free access to laboratory pellet chow and water ad libitum. After adaptation (1 week), all experimental mice except normal mice (n=8) were fed with 60% high-fat diet (HFD; Diet 12492, Research Diets, Inc., 105 New Brunswick, N.J., USA) for 5 days to adapt to a feed. Thereafter, ICR mice (n=32) fed 60% HFD were randomly divided into four groups (HFD control group, orlistat group, and two PCM treatment groups (50 and 200 mg/kg/day))(in each group n=8). The normal group is supplied with a normal feed and the rest of the groups are supplied with 60% HFD until the end of experiment. The normal and HFD control groups were given water using a stomach tube, while the drug treatment groups were orally given Orlistat or PCM daily using a stomach tube for 6 weeks. After administration for 6 weeks, each mouse was sacrificed after fasting for 12 hours. The blood was immediately centrifuged for 10 minutes at 4° C. Serum triglyceride and total cholesterol were conducted spectrophotometrically using commercially available kits (Wako Pure Chemical Industries, Ltd., Osaka, Japan). HDL-cholesterol is measured using a commercial kit from Asan Pharm Co., Ltd. (Hwaseong-si, Korea, Cat AM203). LDL-cholesterol levels are calculated though TG, TC and HDL levels, and the following formula.
# [6] = system: HFD-induced obesity in mice; test: Body weight and visceral fat in HFD-induced obesity mice, 6 weeks; type: in vivo, ICR mice
# Experimental: Male healthy 4-week-old ICR mice (about 30-32 g) were purchased from Orient (Gyeonggi-do, Korea). Each mouse was kept at room temperature (22±3° C.) and humidity (55±5%) with a 12-h light/dark cycle. […] The mice were allowed free access to laboratory pellet chow and water ad libitum. After adaptation (1 week), all experimental mice except normal mice (n=8) were fed with 60% high-fat diet (HFD; Diet 12492, Research Diets, Inc., 105 New Brunswick, N.J., USA) for 5 days to adapt to a feed. Thereafter, ICR mice (n=32) fed 60% HFD were randomly divided into four groups (HFD control group, orlistat group, and two PCM treatment groups (50 and 200 mg/kg/day))(in each group n=8). The normal group is supplied with a normal feed and the rest of the groups are supplied with 60% HFD until the end of experiment. The normal and HFD control groups were given water using a stomach tube, while the drug treatment groups were orally given Orlistat or PCM daily using a stomach tube for 6 weeks. After administration for 6 weeks, each mouse was sacrificed after fasting for 12 hours. The blood was immediately centrifuged for 10 minutes at 4° C.
# [7] = Orlistat orally daily for 6 weeks
Compound,IC50 value against the ABTS [1],IC50 of DPPH inhibition [2],prevention of absorption of dietary fat [3],side effects [3],lipase inhibition versus dose (FIG. 2) [4],"LDL-cholesterol level ([5]; calculated from TG, TC, HDL)",TC level ([5]; serum),TG level ([5]; serum),"Weight Amount of change [6, 7]","Weight Final [6, 7]","visceral fat weight compared with HFD control mice ([6]; Orlistat, 6 weeks)"
O=C1O[C@H]([C@@H](O)CO)C(O)=C1O [ascorbic acid],2.27 ± 0.19 µg/mL,1.26 ± 0.02 µg/mL,–,–,–,–,–,–,–,–,–
CCCCCCCCCCC[C@@H](C[C@@H]1OC(=O)[C@H]1CCCCCC)OC(=O)[C@H](CC(C)C)NC=O [Orlistat],–,–,approximately 30%,severe gastrointestinal side effects,did not rise at least a certain concentration,at the same level as normal food-supplied mice,at the same level as normal food-supplied mice,at the same level as normal food-supplied mice,8.21 ± 1.82 g/6 weeks,44.92 ± 1.62 g,significantly decreased
